From paper PMC3643815 (Combinatorial chemistry & high throughput screening, 2011)
Counter-ions that a name gives are not always drawn. Like-named read-outs stand apart in the source and are kept apart here.

Assays:
[1] = Solubility by laser nephelometry; settings: dilutions up to 77 μM
[2] = biological target: T1, human Cdc7-Dbf4 kinase (Cdc7-Dbf4 heterodimer) (Homo sapiens, UniProt O00311); assay: Cdc7-Dbf4 kinase assay with the SPA method; assay type: biochemical; settings: 45 mM EDTA in 1% DMSO, 25 μM [γ-33P]-ATP
T1 sequence (O00311 whole entry): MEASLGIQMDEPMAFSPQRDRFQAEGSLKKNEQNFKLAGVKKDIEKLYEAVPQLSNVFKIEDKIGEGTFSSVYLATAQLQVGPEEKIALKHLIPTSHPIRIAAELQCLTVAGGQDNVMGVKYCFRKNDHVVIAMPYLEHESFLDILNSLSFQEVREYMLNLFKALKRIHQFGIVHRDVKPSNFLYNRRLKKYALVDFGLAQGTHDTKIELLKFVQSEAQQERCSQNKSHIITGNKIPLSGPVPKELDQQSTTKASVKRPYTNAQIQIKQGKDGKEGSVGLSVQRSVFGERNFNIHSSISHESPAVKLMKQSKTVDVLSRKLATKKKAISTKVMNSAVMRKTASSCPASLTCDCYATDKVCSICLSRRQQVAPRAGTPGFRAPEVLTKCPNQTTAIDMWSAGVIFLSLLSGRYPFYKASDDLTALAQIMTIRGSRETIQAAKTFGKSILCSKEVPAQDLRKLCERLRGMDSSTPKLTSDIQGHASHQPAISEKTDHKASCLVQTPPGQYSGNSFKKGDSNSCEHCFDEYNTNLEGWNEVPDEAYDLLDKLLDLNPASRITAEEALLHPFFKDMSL
T1 sequence (Q9UBU7 whole entry partner): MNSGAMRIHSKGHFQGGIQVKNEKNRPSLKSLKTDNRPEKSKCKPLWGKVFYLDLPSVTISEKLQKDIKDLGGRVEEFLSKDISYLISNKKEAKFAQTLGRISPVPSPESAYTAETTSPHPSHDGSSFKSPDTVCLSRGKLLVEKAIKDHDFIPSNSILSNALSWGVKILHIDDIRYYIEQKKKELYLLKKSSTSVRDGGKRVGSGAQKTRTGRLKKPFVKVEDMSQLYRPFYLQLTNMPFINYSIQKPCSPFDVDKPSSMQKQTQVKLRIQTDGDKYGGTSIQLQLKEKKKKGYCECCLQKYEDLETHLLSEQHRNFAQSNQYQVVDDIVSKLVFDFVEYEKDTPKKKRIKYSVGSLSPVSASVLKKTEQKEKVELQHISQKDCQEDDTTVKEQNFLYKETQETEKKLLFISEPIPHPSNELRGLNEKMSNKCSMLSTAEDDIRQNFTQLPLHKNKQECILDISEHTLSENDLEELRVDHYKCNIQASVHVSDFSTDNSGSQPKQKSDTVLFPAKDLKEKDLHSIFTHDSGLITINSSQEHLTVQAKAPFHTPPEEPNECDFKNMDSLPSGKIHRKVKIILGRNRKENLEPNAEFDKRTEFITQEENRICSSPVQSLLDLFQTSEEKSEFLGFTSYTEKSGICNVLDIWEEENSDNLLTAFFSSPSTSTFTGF

[3] = biological target: T1, human Cdc7-Dbf4 kinase (Cdc7-Dbf4 heterodimer); assay: Cdc7-Dbf4 kinase assay with the LUM method; assay type: biochemical; settings: for ADP production IC50: LUM method, 12.5 μM ATP, up to 77 μM compound, duplicate, N.E. = no effect
[4] = system: luminescence detection (luciferase luminescence signal); assay: Dose response in the luminescence detection step of the LUM method
[5] = system: ADP processing (ATP depletion, ATP regeneration, luciferase reaction); assay: Dose response in the ADP processing step of the LUM method; assay type: biochemical

Compound	Solubility [1]	ADP production IC50 [3]	other results
O=C(O)/C=C/c1ccc(O)c(O)c1 [Caffeic acid]	Soluble	–	–
O=C(O)CN(CCN(CC(=O)O)CC(=O)O)CC(=O)O [EDTA]	–	–	inhibition of Cdc7-Dbf4 kinase activity (control selection) [2]: inhibited the Cdc7-Dbf4 kinase activity
O=c1oc2c(O)c(O)cc3c(=O)oc4c(O)c(O)cc1c4c23 [Ellagic acid]	Soluble	–	–
CCOC(=O)[C@H](CCc1ccccc1)N[C@@H](C)C(=O)N1CCC[C@H]1C(=O)O [Enalapril maleate, reference compound]	Soluble	N.E. ^1	–
O=C(O[C@@H]1Cc2c(O)cc(O)cc2O[C@@H]1c1cc(O)c(O)c(O)c1)c1cc(O)c(O)c(O)c1 [Epigallocatechin-3-monogallate]	Soluble	–	–
O=c1c(O)c(-c2ccc(O)c(O)c2)oc2cc(O)ccc12 [Fisetin]	Soluble	N.E.	–
CN(C)c1ccc(C(=C2C=CC(=[N+](C)C)C=C2)c2ccc(N(C)C)cc2)cc1 [Gentian violet, reference compound]	Soluble	–	inhibition at 10 µM ([3]; read-out: averaged percent inhibition (two data sets)): 23%; inhibition at 10 µM ([3]; read-out: percent inhibition, Set 1): 23%; inhibition at 10 µM ([3]; read-out: percent inhibition, Set 2): 23%
O=C1C=C2CC3(O)COc4c(ccc(O)c4O)C3=C2C=C1O (stereo not drawn) [Hematein]	Soluble	–	–
O=c1cc(-c2cc(O)c(O)c(O)c2)oc2cc(O)cc(O)c12 [Hieracin]	Soluble	N.E.	–
O=c1c(O)c(-c2cc(O)c(O)c(O)c2)oc2cc(O)cc(O)c12 [Myricetin]	Soluble	–	–

Continued, in another order:

Solubility [1]	ADP production IC50 [3]	Compound	other results
Soluble	N.E.	O=C(CCCCC(=O)Nc1c(I)cc(I)c(C(=O)O)c1I)Nc1c(I)cc(I)c(C(=O)O)c1I [Iodipamide, reference compound]	–
Soluble	–	O=c1c(-c2cc(O)c(O)c(O)c2)coc2cc(O)c(O)c(O)c12 [Irigenol]	–
Soluble	–	CC(=O)Oc1cc(-c2coc3cc(OC(C)=O)c(OC(C)=O)c(OC(C)=O)c3c2=O)cc(OC(C)=O)c1OC(C)=O [Iriginol hexaaceatate]	–
Soluble	–	N=C1C=CC(=C(c2ccc(N)cc2)c2ccc(N)cc2)C=C1 [Pararosaniline pamoate, reference compound]	–
Soluble	N.E. ^1	O=c1c(O)cccc2cc(O)c(O)c(O)c12 [Purpurogallin]	–
Soluble	–	O=c1c(O)c(-c2ccc(O)c(O)c2)oc2cc(O)cc(O)c12 [Quercetin]	–
Soluble	–	O=C(O[C@@H]1Cc2c(O)cc(O)cc2O[C@@H]1c1cc(O)c(=O)c2c(O)c(O)cc([C@H]3Oc4cc(O)cc(O)c4C[C@H]3O)c2c1)c1cc(O)c(O)c(O)c1 [Theaflavin monogallates]	–
Soluble	N.E.	Pyrogallin	–
Soluble	–	Tannic acid	concentration at which compound inhibits luminescence detection [4]: 10 µM; concentration at which ATP depletion is inhibited [5]: higher than 0.2 μM; percent inhibition, Set 1 ([3]; LUM method pilot screen, 10 μM compound in 1% DMSO, Set 1 of duplicate): 46%; percent inhibition, Set 2 ([3]; LUM method pilot screen, 10 μM compound in 1% DMSO, Set 2 of duplicate): 52%; averaged percent inhibition (two data sets) ([3]; LUM method pilot screen, 10 μM compound, average of duplicate): 49%
